{"source": "ChEMBL document CHEMBL1149762", "about": "“Carbamate prodrugs of N-alkylfuramidines” (Eur J Med Chem, 2008)", "key": {"Rattus norvegicus [1]": {"system": "Rattus norvegicus", "assay": "Toxicity against immunosuppressed rat pneumocystis model at 33.0 umol/kg/day, po", "type": "organism-based", "conditions": "in vivo"}, "Rattus norvegicus [2]": {"system": "Rattus norvegicus", "assay": "Toxicity against immunosuppressed rat pneumocystis model at 22.0 umol/kg/day, iv", "type": "organism-based", "conditions": "in vivo"}, "Pneumocystis carinii [3]": {"system": "Pneumocystis carinii", "assay": "Antimicrobial activity against Pneumocystis carinii in immunosuppressed rat assessed as number of cysts/g of lung at 22.0 umol/kg/day, iv relative to control", "type": "functional"}, "Pneumocystis carinii [4]": {"system": "Pneumocystis carinii", "assay": "Antimicrobial activity against Pneumocystis carinii in immunosuppressed rat assessed as number of cysts/g of lung at 33.0 umol/kg/day, po relative to control", "type": "functional"}, "Rattus norvegicus [5]": {"system": "Rattus norvegicus", "assay": "Toxicity against immunosuppressed rat pneumocystis model at 10.8 umol/kg/day, iv", "type": "organism-based", "conditions": "in vivo"}, "Pneumocystis carinii [6]": {"system": "Pneumocystis carinii", "assay": "Antimicrobial activity against Pneumocystis carinii in immunosuppressed rat assessed as number of cysts/g of lung at 10.8 umol/kg/day, iv relative to control", "type": "functional"}, "Pneumocystis carinii [7]": {"system": "Pneumocystis carinii", "assay": "Antimicrobial activity against Pneumocystis carinii in immunosuppressed rat assessed as number of cysts/g of lung at 11.0 umol/kg/day, iv relative to control", "type": "functional"}, "Rattus norvegicus [8]": {"system": "Rattus norvegicus", "assay": "Toxicity against immunosuppressed rat pneumocystis model at 11.0 umol/kg/day, iv", "type": "organism-based", "conditions": "in vivo"}, "Pneumocystis carinii [9]": {"system": "Pneumocystis carinii", "assay": "Antimicrobial activity against Pneumocystis carinii in immunosuppressed rat assessed as number of cysts/g of lung at 9.4 umol/kg/day, iv relative to control", "type": "functional"}, "Rattus norvegicus [10]": {"system": "Rattus norvegicus", "assay": "Toxicity against immunosuppressed rat pneumocystis model at 13.3 umol/kg/day, iv", "type": "organism-based", "conditions": "in vivo"}, "Rattus norvegicus [11]": {"system": "Rattus norvegicus", "assay": "Toxicity against immunosuppressed rat pneumocystis model at 39.8 umol/kg/day, po", "type": "organism-based", "conditions": "in vivo"}, "Pneumocystis carinii [12]": {"system": "Pneumocystis carinii", "assay": "Antimicrobial activity against Pneumocystis carinii in immunosuppressed rat assessed as number of cysts/g of lung at 13.3 umol/kg/day, iv relative to control", "type": "functional"}, "Pneumocystis carinii [13]": {"system": "Pneumocystis carinii", "assay": "Antimicrobial activity against Pneumocystis carinii in immunosuppressed rat assessed as number of cysts/g of lung at 39.8 umol/kg/day, po relative to control", "type": "functional"}}}
{"smiles": "N/C(=N\\C(=O)OCC(Cl)(Cl)Cl)c1ccc(-c2ccc(-c3ccc(/C(N)=N\\C(=O)OCC(Cl)(Cl)Cl)cc3)o2)cc1", "values": [{"measurement": "Activity", "setting": "Rattus norvegicus [1]", "result": "Non-toxic"}, {"measurement": "Activity", "setting": "Rattus norvegicus [2]", "result": "Non-toxic"}, {"measurement": "Activity", "setting": "Pneumocystis carinii [3]", "result": 1.72, "unit": "%"}, {"measurement": "Activity", "setting": "Pneumocystis carinii [4]", "result": 5.45, "unit": "%"}]}
{"smiles": "CC(C)NC(=N)c1ccc(-c2ccc(-c3ccc(C(=N)NC(C)C)cc3)o2)cc1", "values": [{"measurement": "Activity", "setting": "Rattus norvegicus [1]", "result": "Non-toxic"}, {"measurement": "Activity", "setting": "Rattus norvegicus [5]", "result": "Non-toxic"}, {"measurement": "Activity", "setting": "Pneumocystis carinii [4]", "result": 78.52, "unit": "%"}, {"measurement": "Activity", "setting": "Pneumocystis carinii [6]", "result": 0.26, "unit": "%"}]}
{"smiles": "N=C(N)c1ccc(OCCCCCOc2ccc(C(=N)N)cc2)cc1", "note": "[PENTAMIDINE]", "values": [{"measurement": "Activity", "setting": "Rattus norvegicus [1]", "result": "Non-toxic"}, {"measurement": "Activity", "setting": "Pneumocystis carinii [3]", "result": 2.75, "unit": "%"}, {"measurement": "Activity", "setting": "Pneumocystis carinii [4]", "result": 67.78, "unit": "%"}]}
{"smiles": "CONC(=N)c1ccc(-c2ccc(-c3ccc(C(=N)NOC)cc3)o2)cc1", "note": "[PAFURAMIDINE]", "values": [{"measurement": "Activity", "setting": "Rattus norvegicus [1]", "result": "Non-toxic"}, {"measurement": "Activity", "setting": "Rattus norvegicus [2]", "result": "Non-toxic"}, {"measurement": "Activity", "setting": "Pneumocystis carinii [3]", "result": 13.99, "unit": "%"}, {"measurement": "Activity", "setting": "Pneumocystis carinii [4]", "result": 1.21, "unit": "%"}]}
{"smiles": "CCOC(=O)/N=C(\\NC(C)C)c1ccc(-c2ccc(-c3ccc(/C(=N/C(=O)OCC)NC(C)C)cc3)o2)cc1", "values": [{"measurement": "Activity", "setting": "Pneumocystis carinii [7]", "result": 82.21, "unit": "%"}, {"measurement": "Activity", "setting": "Rattus norvegicus [1]", "result": "Non-toxic"}, {"measurement": "Activity", "setting": "Rattus norvegicus [8]", "result": "Non-toxic"}, {"measurement": "Activity", "setting": "Pneumocystis carinii [4]", "result": 51.92, "unit": "%"}]}
{"smiles": "CC(C)N/C(=N\\C(=O)OCC(Cl)(Cl)Cl)c1ccc(-c2ccc(-c3ccc(/C(=N\\C(=O)OCC(Cl)(Cl)Cl)NC(C)C)cc3)o2)cc1", "values": [{"measurement": "Activity", "setting": "Rattus norvegicus [1]", "result": "Non-toxic"}, {"measurement": "Activity", "setting": "Rattus norvegicus [2]", "result": "Non-toxic"}, {"measurement": "Activity", "setting": "Pneumocystis carinii [3]", "result": 0.02, "unit": "%"}, {"measurement": "Activity", "setting": "Pneumocystis carinii [4]", "result": 2.01, "unit": "%"}]}
{"smiles": "N=C(NC1CCCC1)c1ccc(-c2ccc(-c3ccc(C(=N)NC4CCCC4)cc3)o2)cc1", "values": [{"measurement": "Activity", "setting": "Pneumocystis carinii [9]", "result": 0.04, "unit": "%"}, {"measurement": "Activity", "setting": "Rattus norvegicus [1]", "result": "Non-toxic"}, {"measurement": "Activity", "setting": "Pneumocystis carinii [4]", "result": 125.3, "unit": "%"}]}
{"smiles": "O=C(/N=C(\\NC1CCCC1)c1ccc(-c2ccc(-c3ccc(/C(=N\\C(=O)OCC(Cl)(Cl)Cl)NC4CCCC4)cc3)o2)cc1)OCC(Cl)(Cl)Cl", "values": [{"measurement": "Activity", "setting": "Rattus norvegicus [1]", "result": "Non-toxic"}, {"measurement": "Activity", "setting": "Rattus norvegicus [2]", "result": "Non-toxic"}, {"measurement": "Activity", "setting": "Pneumocystis carinii [3]", "result": 39.84, "unit": "%"}, {"measurement": "Activity", "setting": "Pneumocystis carinii [4]", "result": 3.7, "unit": "%"}]}
{"smiles": "N=C(N)c1ccc(-c2ccc(-c3ccc(C(=N)N)cc3)o2)cc1", "note": "[FURAMIDINE]", "values": [{"measurement": "Activity", "setting": "Rattus norvegicus [10]", "result": "Non-toxic"}, {"measurement": "Activity", "setting": "Rattus norvegicus [11]", "result": "Non-toxic"}, {"measurement": "Activity", "setting": "Pneumocystis carinii [12]", "result": 0.86, "unit": "%"}, {"measurement": "Activity", "setting": "Pneumocystis carinii [13]", "result": 15.67, "unit": "%"}]}
